Measured values reported in patent US20110009335A1, “Anticancer Treatments” (priority 2008, published 2011).
Read-outs that look alike come from different tables or passages of the source. Starred links: 1 amine or outer side, 2 acyl side, 3 side chain; linkers in the order of their positions; H or OH if unused. Positions of bridges follow the written chain, without caps; N, C: chain ends. Non-standard residues stand in square brackets, D forms with d. Residues, ends and D or L forms follow the SMILES beside them. *: point of attachment. X1 = CC[C@H](C)[C@@H](N[*:1])[C@@H](O)CC(=O)O[C@H](C(=O)[C@H](C)C(=O)[*:2])C(C)C; NMeY = CN[C@@H](Cc1ccc(O)cc1)C(=O)O; dNMeL = CN[C@H](CC(C)C)C(=O)O; Pyruvoyl = CC(=O)C(=O)*

Experiments:
[1] = test system: MRI-H-121 human renal tumor xenograft; assay: Aplidine with temsirolimus, MRI-H-121 xenograft in athymic nude mice (Example 3); assay type: in vivo; conditions: for % Inhibition G2: aplidine 0.06 mg/kg/day; for antitumor activity as single agent (monotherapy): doses tested, temsirolimus 10 and 20 mg/kg/day
Protocol: Female athymic nude mice (Harlan Sprague Dawley, Madison, Wis.) were utilized for all experiments. Mice were implanted with tumor fragments when mice were 5 weeks of age. Animals were housed in ventilated rack caging, 5 mice per cage, with food and water ad libitum. The mice were acclimated for 1 week prior to being implanted with tumor fragments.
Tumor measurements were determined as disclosed in Example 1. When tumor growth was within an average size range of 95±1.6 mg (mean±SD), mice were randomized into the treatment and control groups based on tumor weight by using LabCat® In Life module V 8.0 SP1 tumor tracking and measurement software.
(§1) Body weights were recorded on treatment days and when tumor sizes were measured. In those days wherein the two drugs were administered the same day, the combination therapy groups were treated by co-administering the two drugs at the same time, with no attempt to sequence the treatments.
Aplidine was provided in the form of vials of lyophilized aplidine powder which was reconstituted in Cremophor EL/ethanol/water (CEW) 15/15/70 to a concentration of 0.5 mg/ml. The aplidine solution in CEW was diluted in 0.9% Saline to the dosing formulation concentrations, being the final proportion of CEW of 0.18/0.18/0.84.
Temsirolimus was provided in the form of vials containing a non-aqueous, ethanolic, sterile solution of temsirolimus, 25 mg/ml. […] Then, the solution was further diluted in 0.9% Saline to the dosing formulation concentrations.
Tumor size measurements were recorded twice weekly from the treatment initiation until the termination of the study. Tumor growth inhibition was assessed comparing the mean tumor weight between the two agents in combination (aplidine and temsirolimus) against temsirolimus mean tumor weight at the different concentrations assayed.
(§2) Mean, standard deviation and standard error of the mean were determined for tumor volume for all animal groups at all assessments. Student's t test was performed on tumor volumes at each measurement day, including at the end of the study, to determine whether there were any statistically significant differences between combination treatment groups and single monotherapy treatment groups.
The definition and criteria for the evaluation of potentiation and the degree of additivity for the combination therapy were the same as those disclose in Example 1.

[2] = test system: CAKI-1 human renal tumor xenograft; assay: Aplidine with sorafenib, CAKI-1 xenograft in athymic nude mice (Example 1); assay type: in vivo
Protocol: Female athymic nude mice (Harlan Sprague Dawley, Madison, Wis.) were utilized for all experiments. Mice were implanted with tumor fragments or a cell suspension when mice were 5 weeks of age. Animals were housed in ventilated rack caging, 5 mice per cage, with food and water ad libitum. The mice were acclimated for 1 week prior to being implanted with tumor fragments or cell suspensions.
Tumor measurements were determined by using Vernier calipers. The formula to calculate volume for a prolate ellipsoid was used to estimate tumor volume (mm^3) from 2-dimensional tumor measurements: Tumor volume (mm^3)=[L×W^2]÷2, where L is the length and it is the longest diameter in mm, and W is the width and it is the shortest diameter in mm of a tumor. Assuming unit density, volume was converted to weight (i.e., 1 mm^3=1 mg).
as §1
Aplidine was provided in the form of vials of lyophilized aplidine powder which was reconstituted in Cremophor EL/ethanol/water (CEW) 15/15/70 to a concentration of 0.5 mg/ml. Then the aplidine solution in CEW was diluted in 0.9% Saline to the dosing formulation concentrations, being the final proportion of CEW of 0.18/0.18/0.84.
Tumor size measurements were recorded twice weekly from the treatment initiation until the termination of the study.
as §2
Determine the % of tumor growth inhibition, as 100−% T/C, for each of the drugs administered as monotherapy at the doses used in the combinations. % T/C was obtained by comparing the mean tumor weight in the treatment groups (T) to the mean tumor weight in the control group (C) (T/C×100%). • 2. The two scores were added together to determine the “expected response” if each agent produced the same response as it did when administered as monotherapy. • 3. This “expected response” was subtracted from the % of tumor growth inhibition determined for the combination therapy group: • a. A negative number meant that the effect of combining the two drugs was less than additive. • b. If the resulting number was close to zero, the effect of combining the two drugs was determined as additive. • c.

[3] = CAKI-1 study, Example 4 (temsirolimus)
[4] = NCI-H-460 study, Example 5 (temsirolimus)
[5] = aplidine 0.040 and/or sorafenib 30 mg/kg/day
[6] = aplidine 0.060 and/or sorafenib 60 mg/kg/day

SMILES: CC[C@H](C)[C@H]1NC(=O)[C@@H](NC(=O)[C@@H](CC(C)C)N(C)C(=O)[C@@H]2CCCN2C(=O)C(C)=O)[C@@H](C)OC(=O)[C@H](Cc2ccc(OC)cc2)N(C)C(=O)[C@@H]2CCCN2C(=O)[C@H](CC(C)C)NC(=O)[C@@H](C)C(=O)[C@H](C(C)C)OC(=O)C[C@@H]1O [aplidine, dehydrodidemnin B] (Pyruvoyl-P[dNMeL]T[X1]LP[NMeY](Me); ester 3-C)
- % Inhibition G2 ([1]; day 12): 1.7%
- % Inhibition G2 ([1]; day 15): −9.0%
- % Inhibition G2 ([1]; day 19): 15.1%
- % Inhibition G2 ([1]; day 22): 6.0%
- % Inhibition G2 ([1]; day 27): 13.7%
- % Inhibition G2 ([1]; day 30): 2.5%
- % Inhibition G2 ([1]; day 34): 3.0%
- % Inhibition G2 ([1]; day 37): 5.0%
- % Inhibition G2 ([1]; day 40): −7.6%
- % Inhibition G2 ([1]; day 47): −1.6%
- antitumor activity as single agent (monotherapy) [1]: refractory
- effect on body weight / toxicity (A498 study, Example 2 (sunitinib)): did not cause a significant decline in mean body weight
- effect on body weight / toxicity (CAKI-1 study, Example 1 (sorafenib)): did not cause a significant decline in mean body weight
- effect on body weight / toxicity (CAKI-1 study, Example 2 (sunitinib)): did not cause a significant decline in mean body weight
- effect on body weight / toxicity [3]: did not cause a significant decline in mean body weight
- effect on body weight / toxicity (HepG2 study, Example 6 (sorafenib)): did not cause a significant decline in mean body weight
- effect on body weight / toxicity (LOX-IMVI study, Example 7 (sorafenib)): did not cause a significant decline in mean body weight
- effect on body weight / toxicity (MRI-H-121 study, Example 2 (sunitinib)): did not cause a significant decline in mean body weight
- effect on body weight / toxicity [4]: did not cause a significant decline in mean body weight
- % T/C on day 7 [2, 5]: 115.8%
- % T/C on day 9 [2, 5]: 124.7%
- % T/C on day 13 [2, 5]: 101.5%
- % T/C on day 16 [2, 5]: 108.2%
- % T/C on day 21 [2, 5]: 104.9%
- % T/C on day 23 [2, 5]: 104.3%
- % T/C on day 28 [2, 5]: 104.6%
- % T/C on day 31 [2, 5]: 96.8%
- % T/C on day 34 [2, 5]: 100.9%
- % T/C on day 37 [2, 5]: 108.7%
- % T/C on day 41 [2, 5]: 109.5%
- % T/C on day 44 [2, 5]: 108.4%
- % T/C on day 49 [2, 5]: 104.4%
- % T/C on day 7 [2, 6]: 103.9%
- % T/C on day 9 [2, 6]: 113.8%
- % T/C on day 13 [2, 6]: 101.6%
- % T/C on day 16 [2, 6]: 105.7%
- % T/C on day 21 [2, 6]: 108.5%
- % T/C on day 23 [2, 6]: 109.0%
- % T/C on day 28 [2, 6]: 107.5%
- % T/C on day 31 [2, 6]: 100.3%
- % T/C on day 34 [2, 6]: 101.8%
- % T/C on day 37 [2, 6]: 107.7%
- % T/C on day 41 [2, 6]: 103.1%
- % T/C on day 44 [2, 6]: 99.4%
- % T/C on day 49 [2, 6]: 96.5%
- antitumor activity as single agent (monotherapy) ([2]; doses and schedules tested): inactive

SMILES: CO[C@H]1C[C@@H]2CC[C@@H](C)[C@@](O)(O2)C(=O)C(=O)N2CCCC[C@H]2C(=O)O[C@H]([C@H](C)C[C@@H]2CC[C@@H](OC(=O)C(C)(CO)CO)[C@H](OC)C2)CC(=O)[C@H](C)/C=C(\C)[C@@H](O)[C@@H](OC)C(=O)[C@H](C)C[C@H](C)/C=C/C=C/C=C/1C [temsirolimus]
- antitumor activity as single agent (monotherapy) [1]: very sensitive
- % Inhibition G3 ([1]; temsirolimus 10 mg/kg/day, day 12): 4.2%
- % Inhibition G3 ([1]; temsirolimus 10 mg/kg/day, day 15): 37.8%
- % Inhibition G3 ([1]; temsirolimus 10 mg/kg/day, day 19): 57.7%
- % Inhibition G3 ([1]; temsirolimus 10 mg/kg/day, day 22): 54.3%
- % Inhibition G3 ([1]; temsirolimus 10 mg/kg/day, day 27): 61.7%
- % Inhibition G3 ([1]; temsirolimus 10 mg/kg/day, day 30): 63.1%
- % Inhibition G3 ([1]; temsirolimus 10 mg/kg/day, day 34): 67.4%
- % Inhibition G3 ([1]; temsirolimus 10 mg/kg/day, day 37): 64.2%
- % Inhibition G3 ([1]; temsirolimus 10 mg/kg/day, day 40): 57.5%
- % Inhibition G3 ([1]; temsirolimus 10 mg/kg/day, day 47): 56.2%
- % Inhibition G3 ([1]; temsirolimus 20 mg/kg/day, day 12): 2.3%
- % Inhibition G3 ([1]; temsirolimus 20 mg/kg/day, day 15): 33.2%
- % Inhibition G3 ([1]; temsirolimus 20 mg/kg/day, day 19): 58.5%
- % Inhibition G3 ([1]; temsirolimus 20 mg/kg/day, day 22): 64.9%
- % Inhibition G3 ([1]; temsirolimus 20 mg/kg/day, day 27): 72.6%
- % Inhibition G3 ([1]; temsirolimus 20 mg/kg/day, day 30): 71.5%
- % Inhibition G3 ([1]; temsirolimus 20 mg/kg/day, day 34): 73.7%
- % Inhibition G3 ([1]; temsirolimus 20 mg/kg/day, day 37): 71.6%
- % Inhibition G3 ([1]; temsirolimus 20 mg/kg/day, day 40): 71.5%
- % Inhibition G3 ([1]; temsirolimus 20 mg/kg/day, day 47): 73.0%
- effect on body weight / toxicity [3]: did not cause a significant decline in mean body weight
- effect on body weight / toxicity [4]: did not cause a significant decline in mean body weight

SMILES: CNC(=O)c1cc(Oc2ccc(NC(=O)Nc3ccc(Cl)c(C(F)(F)F)c3)cc2)ccn1 [sorafenib]
- effect on body weight / toxicity (mouse, in vivo): did not cause a significant decline in mean body weight
- % T/C on day 7 [2, 5]: 116.6%
- % T/C on day 9 [2, 5]: 130.2%
- % T/C on day 13 [2, 5]: 105.4%
- % T/C on day 21 [2, 5]: 113.0%
- % T/C on day 23 [2, 5]: 117.1%
- % T/C on day 28 [2, 5]: 90.3%
- % T/C on day 31 [2, 5]: 84.0%
- % T/C on day 34 [2, 5]: 86.0%
- % T/C on day 37 [2, 5]: 92.8%
- % T/C on day 41 [2, 5]: 98.0%
- % T/C on day 44 [2, 5]: 105.8%
- % T/C on day 49 [2, 5]: 102.8%
- % T/C on day 7 [2, 6]: 100.6%
- % T/C on day 9 [2, 6]: 128.9%
- % T/C on day 13 [2, 6]: 104.5%
- % T/C on day 21 [2, 6]: 121.2%
- % T/C on day 23 [2, 6]: 116.6%
- % T/C on day 28 [2, 6]: 110.5%
- % T/C on day 31 [2, 6]: 105.2%
- % T/C on day 34 [2, 6]: 110.2%
- % T/C on day 37 [2, 6]: 119.5%
- % T/C on day 41 [2, 6]: 120.5%
